Laboratory results reported in US6753310B1, “Neovascular-specific peptides” (Otsuka Pharmaceutical Co., Ltd., priority 1998, dated 2004).
Where no end group is shown, it is not given here.

Experiments:
[1] = tested on: Meth A sarcoma; assay: Tumor growth inhibition (tumor volume) in solid tumor-bearing mice, subcutaneous administration; assay type: in vivo, BALB/c mice; conditions: for tumor growth inhibiting effect (tumor volume): FIG. 3, days 1 to 11, vs distilled water; for antitumor activity (tumor volume) / order of intensities of the antitumor activity: FIG. 10
Protocol: Solid tumor-bearing mice were prepared by subcutaneously administering 0.2 ml of Meth A sarcoma cells (5×10^6 cells/ml) into the left flank of five-week-old BALB/c male mice (Japan SLC). After 6 to 10 days from sarcoma implantation, when the diameter of the post-implantation tumor in tumor-bearing mice arrived at 4 mm was taken as day 1 and, on days 1 to 11, distilled water (D.W.) as a control or 20 mg/kg/day of each of the above dendrimers (1) to (3) was subcutaneously administered for 11 consecutive days (4 mice were used in each group).
The antitumor effect of each dendrimer peptide was evaluated 6 days after implantation and thereafter by examining the tumor growth, the body weight change and the survival time (days) as an indicator of side effect. At the same time, the minor axis and major axis of each tumor were measured and the tumor volume was calculated according to the formula shown below.
Tumor volume=0.4×a×b^2 (a: major axis, b: minor axis)
Doses of 10 mg/kg×twice/day and 20 mg/kg×twice/day of the dendrimer peptide derived from the peptide of SEQ ID NO:1 as synthesized in Example 4 (1) and a dose of 20 mg/kg×twice/day of a dendrimer peptide (SEQ ID NO:18) derived from a peptide resulting from replacement of an arbitrary sequence for the sequence shown in SEQ ID NO:1, and distilled water (DW) as a control were subcutaneously administered to mice on days 1 to 10 after tumor cell implantation according to the method of Example 4 (2), and the tumor growth inhibiting activities were examined. Four to six mice per group were subjected to the experiment. The results obtained are shown in FIG. 5 in the same manner as in FIG. 3 (ordinate: tumor volume (cm^3), abscissa: days after tumor cell implantation (days)).
The three short-chain peptides synthesized and physiological saline as a control were respectively administered subcutaneously to mice on days 1 to 10 following tumor cell implantation according to the method of Example 4 (2), and the tumor growth inhibiting activities were examined. The results obtained are shown in FIG. 6 in the same manner as in FIG. 3.
(§1) A dose of 20 mg/kg/day of each of the peptides synthesized in the above manner or distilled water (DW) as a control was subcutaneously administered to mice on days 4 to 9 after tumor cell implantation according to the method of Example 4 (2), and the tumor growth inhibiting activities were examined. Three to five mice per group were used in the experiment. The results are shown in FIG. 7 in the same manner as in FIG. 3.
as §1, with “or physiological saline” for “or distilled water (DW)”, “days 1” for “days 4”, “to 10” for “to 9”, “examined. Four or” for “examined. Three to”, “FIG. 8” for “FIG. 7”
as §1, with “water” for “water (DW)”, “days 1” for “days 4”, “to 10” for “to 9”, “examined. Five or six” for “examined. Three to five”, “FIG. 9” for “FIG. 7”
as §1, with “water or physiological saline” for “water (DW)”, “days 1” for “days 4”, “to 10” for “to 9”, “examined. Five or six” for “examined. Three to five”, “FIG. 10 (results with the peptides of SEQ ID NO:28-32) and FIG. 11 (results with the peptides of SEQ ID NO:33-35)” for “FIG. 7”, “3. […]” for “3.”

[2] = tested on: B16BL6 melanoma tumor tissue; assay: Competitive inhibition experiment using the respective phages and synthetic 15-residue peptides; assay type: in vivo, C57BL/6 mice; conditions: for % Dose/100 mg tissue: tail vein; for inhibitory activity against accumulation of phages Nos. 5 and 6: synthetic peptides with common sequence WRP
Protocol: The synthetic peptides having the amino acid sequences shown in SEQ ID NO:1, 5 and 6 were respectively administered simultaneously with the phages No. 1, No. 5 and No. 6 in a similar manner as in Example 1 (5). Each peptide was synthesized as in Example 2.
(§2) Thus, 10 days after implantation of B16BL6 melanoma (1×10^6 cells) into five-week-old C57BL/6 mice (obtained from Japan SLC), a mixed solution (0.2 ml) of 0.25 μmol of one of the above synthetic peptides and the respective phage (1×10^8 colony forming units) was administered into the tail vein of each tumor-bearing mouse under anesthesia, and the colony forming units of the phage accumulated in the tumor tissue were counted in a similar manner as mentioned above.
In a control group, synthetic peptide-free phage solutions (1×10^8 colony forming units) were administered.
Phages accumulated in neovascular tissues in tumor tissues were counted through colony formation, and each synthetic peptide was evaluated for its inhibitory effect on phage accumulation using, as a reference value, the ratio of accumulation of the peptide-expressing phage in tumor without simultaneous administration of the synthetic peptide.

[3] = tested on: B16BL6 melanoma tumor tissue; assay: Competitive inhibition experiment using the respective phages and synthetic 8-residue or 5-residue peptides; assay type: in vivo, C57BL/6 mice; conditions: for inhibition of phage accumulation in tumor by 5-residue synthetic peptides: FIG. 2, SEQ ID NO:15 with phage No. 5, SEQ ID NO:16 with phage No. 6; for cross reactivity between phages / inhibitory activity compared with the 15-residue synthetic peptides / inhibition of phage accumulation by 8-residue synthetic peptides: FIG. 1; for inhibition of phage accumulation by 8-residue synthetic peptides: phages expressing the corresponding 15-residue peptides (Nos. 5 and 6)
Protocol: as §2
Using a similar method as described above under (2) and using the four short-chain peptides (SEQ ID NO:13 to 16) obtained as mentioned above under (2) in lieu of the synthetic peptides (SEQ ID NO:5 and 6), the synthetic peptides and the respective phages were administered and colony forming units for the phages accumulated in the tumor tissue were counted, and the short-chain synthetic peptides were evaluated for their inhibitory effect on phage accumulation. In a control group,synthetic peptide-free phage solutions (1×10^8 colony forming units) were administered.
In each figure, the ordinate denotes the phase accumulation percentage (%) and the abscissa denotes the phage number. In FIG. 1, the open bar is for the group (control group) given the phage alone without administration of any synthetic peptide, the shaded bar is for the group given the short-chain synthetic peptide shown in SEQ ID NO:13 and the closed bar is for the group given the short-chain synthetic peptide shown in SEQ ID NO:14.
In FIG. 2, the open bar is for the group (control group) given the phage alone without administration of any synthetic peptide, the closed bar is for the group given the short-chain peptide shown in SEQ ID NO:15 (where phage No. 5 was used) and the shaded bar is for the group given the short-chain peptide shown in SEQ ID NO:16 (where phage No. 6 was used).

[4] = FIG. 6, subcutaneously, days 1 to 10, vs physiological saline
[5] = accumulation of phage No. 1 (1×10^8 cfu) co-administered with 0.25 μmol synthetic peptide
[6] = accumulation of phage No. 5 (1×10^8 cfu) co-administered with 0.25 μmol synthetic peptide
[7] = accumulation of phage No. 6 (1×10^8 cfu) co-administered with 0.25 μmol synthetic peptide
[8] = inhibition of phage No. 1 accumulation in tumor by 0.25 μmol synthetic peptide
[9] = inhibition of phage No. 5 accumulation in tumor by 0.25 μmol synthetic peptide
[10] = inhibition of phage No. 6 accumulation in tumor by 0.25 μmol synthetic peptide
[11] = 20 mg/kg/day subcutaneously, days 1 to 10

## (ASSSYPLIHWRPWAR)8-LYs4-Lys2-Lys-βAla (also: octameric lysine dendrimer (Lys4-Lys2-Lys-βAla core), 8 copies)
[1]; 20 mg/kg/day subcutaneously
  tumor growth inhibiting effect (tumor volume): marked tumor growth inhibiting effects

## (DRWRPALPVVLFPLH)8-Lys4-Lys2-Lys-βAla (also: octameric lysine dendrimer (Lys4-Lys2-Lys-βAla core), 8 copies)
[1]; 20 mg/kg/day subcutaneously
  tumor growth inhibiting effect (tumor volume): marked tumor growth inhibiting effects

## (PRPGAPLAGSWPGTS)8-Lys4-Lys2-Lys-βAla (also: octameric lysine dendrimer (Lys4-Lys2-Lys-βAla core), 8 copies)
[1]; 20 mg/kg/day subcutaneously
  tumor growth inhibiting effect (tumor volume): marked tumor growth inhibiting effects
[1]; FIG. 5, 10 and 20 mg/kg×twice/day subcutaneously, days 1 to 10
  tumor growth inhibiting activity (tumor volume): dose-dependent tumor growth inhibiting activity

## APRPG (APRPG-NH2) [SEQ ID NO: 17]
[1]; [4]
  tumor growth inhibiting activity (tumor volume): tendency toward inhibition of tumor growth

## ASSSYPLIHWRPWAR (phage library) [SEQ ID NO: 6]
[2]; [5]
  % Dose/100 mg tissue: 5.92 × 10^−3 % Dose/100 mg tissue
[2]; [6]
  % Dose/100 mg tissue: 3.61 × 10^−3 % Dose/100 mg tissue
[2]; [7]
  % Dose/100 mg tissue: 6.43 × 10^−3 % Dose/100 mg tissue
[2]; [8]
  Accumulation inhibition %: 55%
[2]; [9]
  Accumulation inhibition %: 76%
[2]; [10]
  Accumulation inhibition %: 44%
[2]
  inhibitory activity against accumulation of phages Nos. 5 and 6: crosswise inhibitory activity

## DRWRPALPVVLFPLH (phage library) [SEQ ID NO: 5]
[2]; [5]
  % Dose/100 mg tissue: 6.36 × 10^−3 % Dose/100 mg tissue
[2]; [6]
  % Dose/100 mg tissue: 5.08 × 10^−3 % Dose/100 mg tissue
[2]; [7]
  % Dose/100 mg tissue: 6.60 × 10^−3 % Dose/100 mg tissue
[2]; [8]
  Accumulation inhibition %: 52%
[2]; [9]
  Accumulation inhibition %: 66%
[2]; [10]
  Accumulation inhibition %: 43%
[2]
  inhibitory activity against accumulation of phages Nos. 5 and 6: crosswise inhibitory activity
[1]; FIG. 7, 20 mg/kg/day subcutaneously, days 4 to 9
  tumor growth inhibiting activity (tumor volume): have tumor growth inhibiting activity

## HWRPW (HWRPW-NH2) [SEQ ID NO: 16]
[3]
  inhibition of phage accumulation in tumor by 5-residue synthetic peptides: inhibit likewise the accumulation in tumor of the phages

## PRPGAPLAGSWPGTS (phage library) [SEQ ID NO: 1]
[2]; [5]
  % Dose/100 mg tissue: 5.95 × 10^−3 % Dose/100 mg tissue
[2]; [6]
  % Dose/100 mg tissue: 1.35 × 10^−2 % Dose/100 mg tissue
[2]; [7]
  % Dose/100 mg tissue: 1.14 × 10^−2 % Dose/100 mg tissue
[2]; [8]
  Accumulation inhibition %: 55%
[2]; [9]
  Accumulation inhibition %: 9%

## RWRPA (RWRPA-NH2) [SEQ ID NO: 15]
[3]
  inhibition of phage accumulation in tumor by 5-residue synthetic peptides: inhibit likewise the accumulation in tumor of the phages

## SEQ ID NO: 13: 8-Residue peptide comprising positions 1 to 8 of SEQ ID NO: 5 (DRWRPALP; phage library)
[3]
  cross reactivity between phages: showed cross reactivity
  inhibitory activity compared with the 15-residue synthetic peptides: higher in inhibitory activity than the 15-resiude synthetic peptides
  inhibition of phage accumulation by 8-residue synthetic peptides: inhibited the accumulation of the phages

## SEQ ID NO: 14: 8-Residue peptide comprising positions 8 to 15 of SEQ ID NO: 6 (IHWRPWAR; phage library)
[3]
  cross reactivity between phages: showed cross reactivity
  inhibitory activity compared with the 15-residue synthetic peptides: higher in inhibitory activity than the 15-resiude synthetic peptides
  inhibition of phage accumulation by 8-residue synthetic peptides: inhibited the accumulation of the phages

## SEQ ID NO: 19: 12-Residue peptide containing positions 1 to 8 of SEQ ID NO: 1 (ADGAPRPGAPLA; phage library)
[1]; [4]
  tumor growth inhibiting activity (tumor volume): tendency toward inhibition of tumor growth

## SEQ ID NO: 28: 4-Residue peptide comprising positions 2 to 5 of SEQ ID NO: 5 (RWRP; phage library)
[1]; [11]
  antitumor activity (tumor volume): has antitumor activity
  order of intensities of the antitumor activity: peptide of SEQ ID NO:28=peptide of SEQ ID NO:29>peptide of SEQ ID NO:30=peptide of SEQ ID NO:31>peptide of SEQ ID NO:32

## SEQ ID NO: 29: 4-Residue peptide comprising positions 9 to 12 of SEQ ID NO: 6 (HWRP; phage library)
[1]; [11]
  antitumor activity (tumor volume): has antitumor activity
  order of intensities of the antitumor activity: peptide of SEQ ID NO:28=peptide of SEQ ID NO:29>peptide of SEQ ID NO:30=peptide of SEQ ID NO:31>peptide of SEQ ID NO:32

## SEQ ID NO: 30: 4-Residue peptide comprising positions 3 to 12 of SEQ ID NO: 5 (WRPA; phage library)
[1]; [11]
  antitumor activity (tumor volume): has antitumor activity
  order of intensities of the antitumor activity: peptide of SEQ ID NO:28=peptide of SEQ ID NO:29>peptide of SEQ ID NO:30=peptide of SEQ ID NO:31>peptide of SEQ ID NO:32

## SEQ ID NO: 31: 4-Residue peptide comprising positions 10 to 13 of SEQ ID NO: 6 (WRPW; phage library)
[1]; [11]
  antitumor activity (tumor volume): has antitumor activity
  order of intensities of the antitumor activity: peptide of SEQ ID NO:28=peptide of SEQ ID NO:29>peptide of SEQ ID NO:30=peptide of SEQ ID NO:31>peptide of SEQ ID NO:32

## Trp-Arg-Pro (WRP; phage library) [SEQ ID NO: 32]
[1]; [11]
  antitumor activity (tumor volume): has antitumor activity
  order of intensities of the antitumor activity: peptide of SEQ ID NO:28=peptide of SEQ ID NO:29>peptide of SEQ ID NO:30=peptide of SEQ ID NO:31>peptide of SEQ ID NO:32
